Results reported in patent US11230578B2, “Peptides and use of same in the treatment of diseases, disorders or conditions associated with a mutant P53” (Yeda Research and Development Co. Ltd., priority 2016, dated 2022).
Where two headings read alike, the source gives them in different places.

Key:
[1] = test system: ES2 cells expressing luciferase; assay: ES2 ovarian cancer mouse xenograft model, luciferase live imaging; type: in vivo, nude mice
Protocol: 2*10^5 ES2 cells expressing luciferase were injected into the hips of nude mice. Bioluminescence was measured. […] The background threshold detection level of the IVIS system was about 5×10^6 photons. […]
Mice (6 weeks Athymic nude) were injected subcutaneously with 2×10^5-10^6 cells into each […]. All the cell lines employed in these experiments stably express a luciferase reporter gene to enable monitoring of tumor growth by live imaging. 4-18 days later, when tumors reached visible size, the mice were randomly divided into several groups: a control group, treated with either a single control peptide, and groups treated with effective peptide, either a single peptide. Peptides were administered either by intratumoral injection of 10 μg peptide per tumor in 40 μl PBS, three times a week or by Alzet mini pumps 0.8 mg for two weeks. Tumor growth over time was measured by live imaging, using the IVIS2000 system. Exposure time was calibrated to 20 seconds. 16 images were taken over 8 minutes and peak luminescence values were taken for each tumor. Experiments were conducted until tumors reached maximal allowed size of 1 cm^3, at which mice were sacrificed and tumors extracted, measured and weighed.

[2] = Pharmacokinetic study, plasma half life; type: in vivo
Source text: FIGS. 4A-D show the pharmacokinetics of various modes of administration.

[3] = test system: ES2 ovarian cancer cells (p53 mutant S241F); type: cell-based
Protocol: Cells were cultured in 96 wells plates with 3000 cells/well. […] Then medium was removed and cell viability was determined by staining the cells with crystal violet (0.05%) in methanol/PBS (1:5, v/v), for 10 min, followed by 3 washes with PBS. 10% acetic acid was added to each well for 10 min. OD was determined at 595 nm.
Cells, ES2 Con expressing endogenous mp53^S241F, and ES2 KO cells in which p53 was stably knocked out using CRISPR/Cas9 (ES2 p53KO), to control for specificity for mutp53 were cultured in 96 wells plates with 3000 cells/well. Indicated peptides were added at a concentration of 8 μg/ml and the plates incubated for additional 48 h at 37° C. Then medium was removed and cell viability was determined by staining the cells with crystal violet (0.05%) in methanol/PBS (1:5, v/v), for 10 min, followed by 3 washes with PBS. 10% acetic acid was added to each well for 10 min. OD was determined at 595 nm.
Cells were cultured in 96 wells plates with 3000 cells/well. Serial dilutions of different peptides were added and the plates incubated for additional 48 h at 37° C. Then the medium was removed and cell viability was determined by staining the cells with crystal violet (0.05%) in methanol/PBS (1:5, v/v), for 10 min, followed by 3 washes with PBS. 10% acetic acid was added to each well for 10 min. OD was determined at 595 nm. Results are normalized to non-treated cells 100% viability.
Cells were cultured in 96 wells plates with 2500-4000 cells/well. Serial dilutions of different peptides were added and the plates incubated for additional 48 h at 37° C. Then medium was removed and cell viability was determined by staining the cells with crystal violet (0.05%) in methanol/PBS (1:5, v/v), for 10 min, followed by 3 washes with PBS. 10% acetic acid was added to each well for 10 min. OD was determined at 595 nm.
ES2 Cells were cultured in 96 wells plates with 3000 cells/well. […] Then medium was removed and cell viability was determined by staining the cells with crystal violet (0.05%) in methanol/PBS (1:5, v/v), for 10 min, followed by 3 washes with PBS. 10% acetic acid was added to each well for 10 min. OD was determined at 595 nm.
Cells, ES2 Con expressing endogenous mp53S241F, and ES2 KO cells in which p53 was stably knocked out using CRISPR/Cas9 (ES2 p53KO), to control for specificity for mutp53 were cultured in 96 wells plates with 3000 cells/well. The indicated peptides were added at a concentration of 8 μg/ml and the plates incubated for additional 48 h at 37° C. Then medium was removed and cell viability was determined by staining the cells with crystal violet (0.05%) in methanol/PBS (1:5, v/v), for 10 min, followed by 3 washes with PBS. 10% acetic acid was added to each well for 10 min. OD was determined at 595 nm.

SMILES: CCCCCCCCCCCCCC(=O)N[C@@H](CCCNC(=N)N)C(=O)N[C@@H](CCCNC(=N)N)C(=O)N[C@@H](Cc1c[nH]cn1)C(=O)N[C@@H](CO)C(=O)N[C@H](C(=O)N1CCC[C@H]1C(=O)N[C@@H](Cc1c[nH]cn1)C(=O)N1CCC[C@H]1C(=O)N[C@@H](CC(=O)O)C(=O)O)[C@@H](C)O [pCAP-250]
- effect on tumor development of ES2 cells ([1]; intratumoral injections, 0.4 mg/kg 3 times a week): significant effect
- effect on tumor development of ES2 cells ([1]; subcutaneously by Alzet minipumps, 2.3 mg/kg per day): significant effect
- half-life ([2]; iv, 1 mg/kg, administered intravenously): 48 to 108 min
- half-life ([2]; sc, administered subcutaneously): 180 to 480 min
- IC50 ([3]; 48 h): 3200 nM
- viability of the cancer cells in the presence of peptide ([3]; ES2 cells, FIG. 1): reduced significantly
- combination effect of pCAP-250 and cisplatin ([3]; ES2 cells, pCAP-250 dilutions + 1 μg/ml cisplatin, 48 h): synergistic effect
- IC50 ([3]; read-out: IC50 for pCAP-250 in combination with cisplatin, cell viability, ES2 cells, together with 1 μg/ml of cisplatin, 48 h, estimated): 1900 nM
